Measurements from ChEMBL document CHEMBL3232769, “Design and synthesis of conformationally restricted inhibitors of active thrombin activatable fibrinolysis inhibitor (TAFIa)” (Bioorg Med Chem, 2014).

How the values were obtained:
Carboxypeptidase B2 [1] = target: T1, Carboxypeptidase B2 (Homo sapiens, UniProt Q96IY4); assay: Inhibition of […] in human plasma assessed as clot lysis
T1 sequence (Q96IY4 whole entry): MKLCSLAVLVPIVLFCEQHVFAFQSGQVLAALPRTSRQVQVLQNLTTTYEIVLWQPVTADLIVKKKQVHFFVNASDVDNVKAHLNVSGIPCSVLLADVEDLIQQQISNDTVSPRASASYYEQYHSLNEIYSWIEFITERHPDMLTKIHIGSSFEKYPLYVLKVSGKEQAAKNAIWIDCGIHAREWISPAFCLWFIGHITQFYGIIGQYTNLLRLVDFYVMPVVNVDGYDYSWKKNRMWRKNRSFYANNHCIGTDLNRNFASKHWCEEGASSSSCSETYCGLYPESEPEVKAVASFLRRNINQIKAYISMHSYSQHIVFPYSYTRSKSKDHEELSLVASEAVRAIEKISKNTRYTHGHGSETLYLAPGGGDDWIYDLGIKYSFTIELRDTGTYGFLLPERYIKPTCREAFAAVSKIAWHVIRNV

[2] = Oral bioavailability in rat; type: ADME, organism-based; conditions: in vivo
[3] = Clearance in rat; type: ADME, organism-based; conditions: in vivo
Carboxypeptidase B2 [4] = target: T1, Carboxypeptidase B2; assay: Inhibition of human TAF1a
[5] = Lipophilicity, log D of the compound at pH 7.4; conditions: buffer
[6] = target: T2, Carboxypeptidase N catalytic chain (Homo sapiens, UniProt P15169); assay: Inhibition of carboxypeptidase N (unknown origin)
T2 sequence (P15169 whole entry): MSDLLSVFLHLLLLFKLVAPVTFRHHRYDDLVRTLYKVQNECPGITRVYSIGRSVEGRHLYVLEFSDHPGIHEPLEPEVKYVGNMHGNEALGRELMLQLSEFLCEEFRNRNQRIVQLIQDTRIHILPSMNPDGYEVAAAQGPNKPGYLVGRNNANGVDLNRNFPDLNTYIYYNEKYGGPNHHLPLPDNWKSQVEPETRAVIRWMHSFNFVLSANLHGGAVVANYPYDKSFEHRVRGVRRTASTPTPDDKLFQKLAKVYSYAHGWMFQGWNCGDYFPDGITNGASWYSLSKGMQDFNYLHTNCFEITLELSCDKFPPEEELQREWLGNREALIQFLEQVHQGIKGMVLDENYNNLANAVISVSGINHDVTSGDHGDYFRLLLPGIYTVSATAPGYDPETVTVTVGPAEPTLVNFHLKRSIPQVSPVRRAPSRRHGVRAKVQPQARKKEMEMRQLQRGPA

[7] = Clearance in dog; type: ADME, organism-based, Canis lupus familiaris; conditions: in vivo
[8] = target: Phosphodiesterase 4 (Homo sapiens) (UniProt P27815+Q08499+Q07343+Q08493); assay: Inhibition of PDE4 (unknown origin) at 10 uM; type: protein assay
[9] = Oral bioavailability in rat at 20 umol/kg; type: ADME, organism-based; conditions: in vivo
[10] = Oral bioavailability in rat at 6.8 umol/kg; type: ADME, organism-based; conditions: in vivo
[11] = Tmax in rat; type: ADME, organism-based; conditions: in vivo
Carboxypeptidase B2 [12] = target: T1, Carboxypeptidase B2; assay: Inhibition of human […] using hippuryl-L-arginine/hippuryl-L-lysine as substrate by liquid chromatographic analysis

Compound	IC50 (Carboxypeptidase B2 [1]) [µM]	bioavailability [2] [%]	clearance [3] [mL/min/kg]	IC50 (Carboxypeptidase B2 [4]) [µM]	logD [5]	IC50 [6] [µM]	clearance [7] [mL/min/kg]	inhibition [8] [%]	bioavailability [9] [%]	bioavailability [10] [%]	Tmax [11] [min]	IC50 (Carboxypeptidase B2 [12]) [µM]
NCCC[C@@]1(C(=O)O)CCc2c(ncn2C2CCCCC2)C1	0.08	1.4	6.2	0.117	< 0	> 1000	3.5	79	–	–	–	–
CCCn1cnc2c1CC[C@@](CCCN)(C(=O)O)C2	–	–	6	–	< 0	> 1000	–	–	2	8	12	–
CCCn1cnc(CC(NCCN)C(=O)O)c1 (stereo not drawn)	8	–	–	–	–	–	–	–	–	–	–	0.62
Cl.NCCC[C@@]1(C(=O)O)CCn2c(-c3cccc(-c4ccc(Cl)cc4Cl)c3)cnc2C1	3.2	0.9	–	< 0.041	2.4	> 1000	–	–	–	–	–	–
NCCCC1(C(=O)O)CCc2c(ncn2-c2ccccc2)C1 (racemic)	7.1	–	–	0.585	–	> 1000	–	–	–	–	–	–
NCCC[C@@]1(C(=O)O)CCc2c(ncn2Cc2cccc(-c3ccccc3)c2)C1	2.5	1.7	–	0.106	1	> 1000	–	–	–	–	–	–
C[C@@H](S)[C@@H](Cc1ccc(N)nc1)C(=O)O	0.4	75	27	–	–	–	–	–	–	–	30	0.087
CCCn1cnc(C[C@H](CCCN)C(=O)O)c1 [UK-396,082]	5	–	2	–	–	–	–	–	8	–	60	0.45
CCc1cnc2n1CCC(CCCN)(C(=O)O)C2 (racemic)	> 100	–	–	2.27	–	> 1000	–	–	–	–	–	–
CC(C)CCn1cnc2c1CC[C@@](CCCN)(C(=O)O)C2.Cl	0.1	1.4	–	< 0.041	< 0	> 1000	–	–	–	–	–	–
NCCC[C@@]1(C(=O)O)CCn2c(-c3ccccc3)cnc2C1	1.3	4.9	12	0.066	< 0	> 1000	–	79	–	–	–	–
NCCCC1(C(=O)O)CCc2c(ncn2CCC2CCC(C3CCCCC3)CC2)C1 (racemic)	16	–	–	0.124	3.6	> 1000	–	–	–	–	–	–
